Values quoted from earlier work in patent US5243035A, “Sialic acid-containing glycolipid derivatives” (Drug Delivery System Institute, Ltd., priority 1990, dated 1993).

Conditions: incorporated into liposome membrane; literature report

ganglioside GM1
resistance of liposome to capture by the reticuloendothelial system: increased resistance to capture by the reticuloendothelial system
